Assay [1] has as its system Staphylococcus aureus. The experiment in a line: Antibacterial activity against Staphylococcus aureus Smith.
For assay [2], the system named is Staphylococcus aureus. The experiment in a line: Antibacterial activity against MRSA 5129.
For assay [3], the species on record is Mus musculus. Kind of assay: Antibacterial activity against mice infected with MRSA 5129 challenged with a dose of 1.31*10e8 cells/mouse. Type of assay: functional.
Assay [4] deals with Pseudomonas aeruginosa. Kind of assay: Antibacterial activity against gram- negative Pseudomonas […] ATCC 10145. In kind it is functional.
Assay [5] is filed under the species Mus musculus. Kind of assay: Antibacterial activity against mice infected with Staphylococcus aureus Smith challenged with a dose of 1.32*10e7 cells/mouse. In kind it is functional.
Assay [6] has as its system Escherichia coli. The experiment in a line: Antibacterial activity against Escherichia coli No.29.
The species named for assay [7] is Mus musculus. The experiment in a line: Antibacterial activity against mice infected with Escherichia coli No.29 challenged with a dose of 1.35*10e6 cells/mouse. Type of assay: functional.
Assay [8] has as its system Escherichia coli. Kind of assay: Antibacterial activity against gram- negative Escherichia coli NIHJ JC-2. Type of assay: functional.
For assay [9], the species on record is Mus musculus. Kind of assay: Antibacterial activity against mice infected with MRSA 5038 challenged with a dose of 1*10e7 cells/mouse. In kind it is functional.
Assay [10] relates to Staphylococcus aureus. Kind of assay: Antibacterial activity against gram- positive Staphylococcus aureus FDA 209P. Type of assay: functional.
Assay [11] deals with Staphylococcus aureus. Kind of assay: Antibacterial activity against gram- positive Staphylococcus aureus MRSA 57. Type of assay: functional.
The subject of assay [12] is Staphylococcus aureus. The experiment in a line: Antibacterial activity against MRSA 5038.
Assay [13] has as its system Pseudomonas aeruginosa. Kind of assay: Antibacterial activity against gram- negative Pseudomonas aeruginosa ATCC 10145. Type of assay: functional.
Assay [14] concerns Staphylococcus aureus. Kind of assay: Antibacterial activity against Staphylococcus aureus Smith. The source holds these as a separate data set.
The species entered for assay [15] is Mus musculus. Kind of assay: Antibacterial activity against mice infected with Escherichia coli No.29. Type of assay: functional.
The test system of assay [16] is Escherichia coli. The experiment in a line: Antibacterial activity against Escherichia coli No.29. The source holds these as a separate data set.
The species entered for assay [17] is Mus musculus. The experiment in a line: Antibacterial activity against mice infected with Staphylococcus aureus Smith. In kind it is functional.
The species named for assay [18] is Mus musculus. The experiment in a line: Antibacterial activity against mice infected with MRSA 5120 challenged with a dose of 7.6*10e7 cells/mouse. Type of assay: functional.
Assay [19] concerns Staphylococcus aureus. The experiment in a line: Antibacterial activity against gram- positive Staphylococcus aureus Methicillin resistant Staphylococcus aureus 57. Type of assay: functional.
Assay [20] relates to Staphylococcus aureus. The experiment in a line: Antibacterial activity against Staphylococcus aureus Smith.
In assay [21] the test system is Staphylococcus aureus. Kind of assay: microbe, parasite or virus in culture.
Description: Antibacterial activity against Methicillin resistant Staphylococcus aureus 5129
Assay [22] has as its system Escherichia coli. Kind of assay: Antibacterial activity against Escherichia coli NIHJ JC-2. In kind it is functional.
Assay [23] concerns Pseudomonas aeruginosa. The experiment in a line: Antibacterial activity against Pseudomonas aeruginosa ATCC 10145. Type of assay: functional.
In assay [24] the test system is Staphylococcus aureus. The experiment in a line: microbe, parasite or virus in culture. This is another data set of the same source.
Description: Antibacterial activity against Methicillin resistant Staphylococcus aureus 5038
For assay [25], the system named is Staphylococcus aureus. Kind of assay: microbe, parasite or virus in culture. The source holds these as a separate data set.
Description: Antibacterial activity against Methicillin resistant Staphylococcus aureus 5120
The species named for assay [26] is Mus musculus. Kind of assay: Antibacterial activity against mice infected with MRSA 5038. In kind it is functional.

In brackets after ≈: the same amount, converted by molar mass.

In general, ED50 refers to the dose that gives a 50% effect, or the effect in half of the subjects. Low readings indicate greater potency, high ones weaker potency. On to `C[n+]1ccc(SCC2=C(C(=O)O)N3C(=O)[C@@H](NC(=O)/C(=N/OC4CCCC4)c4csc(N)n4)[C@H]3CO2)cc1.O=S(=O)([O-])O`, for which the MIC was 0.39 µg/mL in assay [1]; 6.25 µg/mL in assay [2]; 3.13 µg/mL in [4]; 0.39 µg/mL in [6]; 0.39 µg/mL in [8]; 0.05 µg/mL in [10]. The MIC in assay [11] and in [12] was 3.13 µg/mL throughout. In addition, the ED50 in [3] turned out to be 3.91 mg/kg; in [5], 0.08 mg/kg; in [7], 0.09 mg/kg; in [9] it was 3.4 mg/kg.

`CO/N=C(/C(=O)N[C@@H]1C(=O)N2C(C(=O)O)=C(CSc3cc[n+](C)cc3)OC[C@H]12)c1csc(N)n1.O=S(=O)([O-])O`: the MIC in assay [13] was 6.25 µg/mL; in assay [8], below 0.025 µg/mL; in [10] it was 0.2 µg/mL; in assay [11], 50 µg/mL.

Take `CCC(=O)C[n+]1ccc(SCC2=C(C(=O)O)N3C(=O)[C@@H](NC(=O)/C(=N/OC4CCCC4)c4csc(N)n4)[C@H]3CO2)cc1.O=S(=O)([O-])O`: the MIC was found to be 0.2 µg/mL in [14]; 6.25 µg/mL in [13]; 0.39 µg/mL in assay [16]; 0.39 µg/mL in assay [8]; 0.2 µg/mL in assay [10]; 6.25 µg/mL in assay [11]. The values for the ED50 in [15], in assay [17] and in assay [18] were 0.15 mg/kg, 0.22 mg/kg and 1 mg/kg, respectively.

Regarding `CO/N=C(/C(=O)N[C@@H]1C(=O)N2C(C(=O)O)=C(CSc3cc[n+](CC(C)=O)cc3)OC[C@H]12)c1csc(N)n1.O=S(=O)([O-])O`, the MIC in assay [13] is 12.5 µg/mL; in assay [8], below 0.025 µg/mL; in assay [10] it was 0.39 µg/mL; in [11], 100 µg/mL.

In the case of `CO[C@@]1(NC(=O)CSC(F)F)C(=O)N2C(C(=O)O)=C(CSc3nnnn3CCO)CO[C@@H]21` [FLOMOXEF], the MIC in [14] was 0.39 µg/mL (≈ 0.786 µM); in assay [13], above 100 µg/mL; in [16] it was 0.1 µg/mL (≈ 0.201 µM); in assay [8] it was 0.1 µg/mL (≈ 0.201 µM); in assay [19], 25 µg/mL (≈ 50.4 µM); in assay [10] it was 0.2 µg/mL (≈ 0.403 µM). In [15], this molecule showed an ED50 of 0.43 mg/kg.

On to `CN[C@H](CC(C)C)C(=O)N[C@H]1C(=O)N[C@@H](CC(N)=O)C(=O)N[C@H]2C(=O)N[C@H]3C(=O)N[C@H](C(=O)N[C@H](C(=O)O)c4cc(O)cc(O)c4-c4cc3ccc4O)[C@H](O)c3ccc(c(Cl)c3)Oc3cc2cc(c3O[C@@H]2O[C@H](CO)[C@@H](O)[C@H](O)[C@H]2O[C@H]2C[C@](C)(N)[C@H](O)[C@H](C)O2)Oc2ccc(cc2Cl)[C@H]1O` [VANCOMYCIN], for which the MIC in [20] is 0.78 µg/mL (≈ 0.538 µM); in [21] it was 0.78 µg/mL (≈ 0.538 µM); in [22], above 100 µg/mL; in assay [23], above 100 µg/mL; in [24] it was 1.56 µg/mL (≈ 1.08 µM); in assay [25], 0.78 µg/mL (≈ 0.538 µM). Moreover, the ED50 in [26] is 2.7 mg/kg.

Values taken from ChEMBL document CHEMBL1150475, “Synthesis and biological activity of new optically active 2-oxaisocephems: 3-(N-alkylpyridinium-4-thio)methyl derivatives” (1994).
